Experimental data taken from paper PMC2774691, “Fluorescent Cascade and Direct Assays for Characterization of RAF Signaling Pathway Inhibitors” (Current Chemical Genomics, 2008).

What was measured:
RET V804L = molecular target: T1, RET V804L (Homo sapiens, UniProt P07949, V804L); assay: FRET-based kinase profiling, RET V804L; type: biochemical
T1 construct: purchased Invitrogen
Method: (§1) The buffer consisted of 50 mM HEPES pH 7.5, 10 mM MgCl2, 1 mM EGTA, 0.01% Brij-35. Kinase reactions were typically initiated by the addition of either ATP or the active kinase and allowed to proceed for 1 hour at room temperature (RT). Following the 1 hour kinase assay, 5 µL of development reagent was added and the development reaction allowed to progress for 1 hour at RT, essentially as described previously.

RET Y791F = molecular target: T2, RET Y791F (Homo sapiens, UniProt P07949, Y791F); assay: FRET-based kinase profiling, RET Y791F; type: biochemical
T2 construct: purchased Invitrogen
Method: as §1

FLT3 D835Y = molecular target: T3, FLT3 D835Y (Homo sapiens, UniProt P36888, D835Y); assay: FRET-based kinase profiling, FLT3 D835Y; type: biochemical
T3 construct: purchased Invitrogen

HIPK4 = molecular target: T4, HIPK4 (Homo sapiens, UniProt Q8NE63); assay: FRET-based kinase profiling, HIPK4; type: biochemical
T4 construct: purchased Invitrogen

FLT3 = molecular target: T5, FLT3 (Homo sapiens, UniProt P36888); assay: FRET-based kinase profiling, FLT3; type: biochemical
T5 construct: purchased Invitrogen

CRAF [1] = molecular target: T6, CRAF (Homo sapiens, UniProt P04049, Y340D/Y341D); assay: FRET-based kinase profiling, C-RAF; type: biochemical; conditions: 1 µM inhibitor, ATP at Km app
RET = molecular target: T7, RET (Homo sapiens, UniProt P07949); assay: FRET-based kinase profiling, RET; type: biochemical
T7 construct: purchased Invitrogen
Method: as §1

PDGFR α T674I = molecular target: T8, PDGFR α T674I (Homo sapiens, UniProt P16234, T674I); assay: FRET-based kinase profiling, PDGFR α T674I; type: biochemical
T8 construct: purchased Invitrogen
Method: as §1

PDGFR α D842V = molecular target: T9, PDGFR α D842V (Homo sapiens, UniProt P16234, D842V); assay: FRET-based kinase profiling, PDGFR α D842V; type: biochemical
T9 construct: purchased Invitrogen
Method: as §1

VEGFR3 = molecular target: T10, VEGFR3 (Homo sapiens, UniProt P35916); assay: FRET-based kinase profiling, VEGFR3; type: biochemical
T10 construct: purchased Invitrogen
Method: as §1

PDGFR α = molecular target: T11, PDGFR α (Homo sapiens, UniProt P16234); assay: FRET-based kinase profiling, PDGFR α; type: biochemical
T11 construct: purchased Invitrogen
Method: as §1

CRAF-MEK1-ERK2 = assay: C-RAF-MEK1-ERK2 triple cascade FRET assay; type: biochemical; conditions: 100 μM ATP; read-out: Inhibitor IC50, FRET Triple CRAF-MEK1-ERK2
MEK1-ERK2 = MEK1-ERK2 double cascade FRET assay; type: biochemical; conditions: 100 μM ATP; for IC50: read-out: Inhibitor IC50, FRET Double MEK1-ERK2; for inhibition of MEK1-ERK2 double cascade assay: FRET
BRAF V599E-MEK1-ERK2 = assay: B-RAF V599E-MEK1-ERK2 triple cascade FRET assay; type: biochemical; conditions: 100 μM ATP; read-out: Inhibitor IC50, FRET Triple BRAF V599E-MEK1-ERK2
ERK2 = molecular target: T12, ERK2 (Homo sapiens, UniProt P28482); assay: ERK2 direct FRET kinase assay; type: biochemical; conditions: 100 μM ATP; for IC50: read-out: Inhibitor IC50, FRET Direct ERK2; for inhibition of ERK2 direct assay: FRET
T12 construct: The following kinases were all full-length: B-RAF, unactive MEK1, active MEK1, unactive-fluorescein-labeled MEK1, active ERK2, and unactive ERK2; purchased Invitrogen
Method: FRET-based kinase data was processed in two steps. […] In order to apply equation 1, the 0% and 100% phosphorylation controls were used to establish the minimum and maximum emission ratio values on each assay plate. The 0% phosphorylation control was obtained from a mock kinase reaction run in the absence of ATP. The 100% phosphorylation control was obtained from a mock kinase reaction containing fully phosphorphorylated control peptide. The percent phosphorylation was calculated using the following equation: […]

[2] = test system: B-RAF, B-RAF V599E, and C-RAF; assay: RAF direct TR-FRET assays; type: biochemical; conditions: 100 μM ATP
Method: Development of the TR-FRET assay for RAF using a fluorescein-MEK1 substrate and terbium-labeled phospho-[Ser 217/221] MEK1 antibody has been described. Briefly, 200 nM of fluorescein-MEK1 was used as a substrate in a 10 µL assay. Reactions were conducted in the same 384-well plate type and kinase buffer as described for the FRET assays, initiated by the addition of ATP, and allowed to proceed for 1 hour at RT. After one hour, a 10 µL solution of EDTA and terbium-labeled phospho-[Ser 217/221] MEK1 antibody in 20 mM Tris, pH 7.5 and 0.01% NP-40 was added for a final well volume of 20 µL with final concentrations of antibody and EDTA at 2 nM and 10 mM, respectively. Following a 1 hour incubation at RT, plates were read as described previously. For TR-FRET-based assays, the average maximum signal to basal ratio ( ± standard deviation) obtained using eight different kinases was 8.9 ± 1.0. Inhibition assays were performed by adding 2.5 µL of inhibitor to a 5 µL solution of kinase and substrate, followed by 2.5 µL of ATP. […] The inhibitor studies were conducted in quadruplicate.

BRAF-MEK1-ERK2 = assay: B-RAF-MEK1-ERK2 triple cascade FRET assay; type: biochemical; conditions: 100 μM ATP; read-out: Inhibitor IC50, FRET Triple BRAF-MEK1-ERK2
[3] = test system: B-RAF, B-RAF V599E, or C-RAF triple cascades; assay: three RAF triple cascade FRET assays; type: biochemical; conditions: 100 μM ATP; for IC50: one value or range for the three RAF triple cascades
BRAF V599E = molecular target: T13, BRAF V599E (Homo sapiens, UniProt P15056, V600E); assay: B-RAF V599E direct TR-FRET assay (fluorescein-MEK1 substrate); type: biochemical; conditions: 100 μM ATP; read-out: Inhibitor IC50, TR-FRET Direct BRAF V599E
T13 construct: amino acids 416-766 for B-RAF V599E and 306-648 for C-RAF; purchased Invitrogen
Method: (§2) Briefly, 200 nM of fluorescein-MEK1 was used as a substrate in a 10 µL assay. Reactions were conducted in the same 384-well plate type and kinase buffer as described for the FRET assays, initiated by the addition of ATP, and allowed to proceed for 1 hour at RT. […] MEK1 antibody in 20 mM Tris, pH 7.5 and 0.01% NP-40 was added for a final well volume of 20 µL with final concentrations of antibody and EDTA at 2 nM and 10 mM, respectively. Following a 1 hour incubation at RT, plates were read as described previously. […] Inhibition assays were performed by adding 2.5 µL of inhibitor to a 5 µL solution of kinase and substrate, followed by 2.5 µL of ATP. […] The inhibitor studies were conducted in quadruplicate.

CRAF [4] = molecular target: T6, CRAF; assay: C-RAF direct TR-FRET assay (fluorescein-MEK1 substrate); type: biochemical; design: amino acids 416-766 for B-RAF V599E and 306-648 for C-RAF; purchased Invitrogen
Method: as §2

BRAF = molecular target: T14, BRAF (Homo sapiens, UniProt P15056); assay: B-RAF direct TR-FRET assay (fluorescein-MEK1 substrate); type: biochemical; conditions: 100 μM ATP; read-out: Inhibitor IC50, TR-FRET Direct BRAF
T14 construct: The following kinases were all full-length: B-RAF, unactive MEK1, active MEK1, unactive-fluorescein-labeled MEK1, active ERK2, and unactive ERK2; purchased Invitrogen
Method: as §2

[5] = test system: activation of MEK1 by C-RAF; conditions: ~300 nM MEK1 as substrate; read-out: IC50, inhibition of activation of MEK1 by C-RAF; cited from earlier work
MEK1 = conditions: cited from earlier work
MEK1 activation = conditions: read-out: IC50, inhibition of MEK1 activation in Swiss 3T3 cells; cited from earlier work

Row | IC50 [3] [nM] | SMILES | IC50 (CRAF-MEK1-ERK2) [nM] | IC50 (MEK1-ERK2) [nM] | inhibition of MEK1-ERK2 double cascade assay (MEK1-ERK2) | IC50 (BRAF V599E-MEK1-ERK2) [nM] | IC50 (ERK2) [nM] | inhibition of ERK2 direct assay (ERK2) | IC50 (BRAF-MEK1-ERK2) [nM] | inhibition of B-RAF, B-RAF V599E and C-RAF TR-FRET direct assays [2] | other results
1 | – | CNC(=O)c1cc(Oc2ccc(NC(=O)Nc3ccc(Cl)c(C(F)(F)F)c3)cc2)ccn1 [BAY-43-9006, Sorafenib] | – | – | – | – | – | – | – | – | inhibition at 1 µM (RET V804L): 44%; inhibition at 1 µM (RET Y791F): 80%; inhibition at 1 µM (FLT3 D835Y): 45%; inhibition at 1 µM (HIPK4): 45%; inhibition at 1 µM (FLT3): 89%; % inhibition C-RAF (CRAF [1]): 50%; inhibition at 1 µM (RET): 77%; inhibition at 10 µM (PDGFR α T674I): 37%; inhibition at 10 µM (PDGFR α D842V): 3%; inhibition at 1 µM (VEGFR3): 40%; inhibition at 1 µM (PDGFR α): 33%; inhibition at 10 µM (PDGFR α): 75%
2 | […] | O=C1Nc2ccc(I)cc2/C1=C/c1cc(Br)c(O)c(Br)c1 [GW5074] | […] | > 400 | no inhibition | […] | > 400 | no inhibition | 3 | – | IC50 ([2]; range over the three RAF isoforms): […]; inhibition of the three RAF triple cascade assays ([3]; FRET): […]
3 | – | CN[C@@H]1C[C@H]2O[C@@](C)([C@@H]1OC)n1c3ccccc3c3c4c(c5c6ccccc6n2c5c31)C(=O)NC4 [Staurosporine] | – | – | – | 69 | – | – | 56 | – | –
4 | […] | N#CC(=C(/N)Sc1ccccc1N)/C(C#N)=C(/N)Sc1ccccc1N [U0126] | 66 | > 10000 | – | […] | > 50000 | – | […] | very weak inhibitory activity | preferential inhibition of MEK1 activation over MEK1 (MEK1; radiometric kinase assays): ~ 100 fold; IC50 (MEK1; read-out: reported IC50, inhibition of MEK1): 13000 nM; IC50 (MEK1 activation): ~70 nM
5 | – | Cc1ccc(NC(=O)c2cccc(N(C)C)c2)cc1NC(=O)c1ccc(O)cc1 [ZM336372] | 30 | > 50000 | no inhibition | 32 | > 50000 | no inhibition | 400 | – | –

Row | SMILES | IC50 [3] [nM] | IC50 (CRAF-MEK1-ERK2) [nM] | IC50 (MEK1-ERK2) [nM] | inhibition of MEK1-ERK2 double cascade assay (MEK1-ERK2) | IC50 (BRAF V599E-MEK1-ERK2) [nM] | IC50 (ERK2) [nM] | inhibition of ERK2 direct assay (ERK2) | IC50 (BRAF-MEK1-ERK2) [nM] | inhibition of B-RAF, B-RAF V599E and C-RAF TR-FRET direct assays [2] | other results
6 | COc1cccc(-c2cc(=O)c3ccccc3o2)c1N [PD98059] | 300 to 420 | 380 | > 50000 | no inhibition | 300 | > 50000 | no inhibition | 420 | did not inhibit | IC50 (BRAF V599E): > 50000 nM; IC50 (CRAF [4]; 100 μM ATP, read-out: Inhibitor IC50, TR-FRET Direct CRAF): > 50000 nM; inhibition of C-RAF in direct TR-FRET assay (CRAF [4]; fluorescein-labeled unactivated MEK1 substrate): neither U0126 nor PD98059 significantly inhibited C-RAF; IC50 (BRAF): > 50000 nM; IC50 [5]: 2000 to 7000 nM
